Assay results as given in patent US20180073031A1, “TRANSCRIPTIONAL SENSOR FOR BILE ACIDS IN BACTEROIDES THETAIOTAOMICRON” (priority 2016, published 2018).

Assays:
[1] = system: bile acid sensor BreR from V. cholerae; format: cell-based; conditions: for sensor sensitive to substance (FIG. 4 legend): in vitro functionality; for induction of reporter luminescence by bile acid: strain grown with various concentrations of bile acids, FIGS. 4B-4G; for Sensitivity: BreR bile acid sensor in B. thetaiotaomicron; for Sensitivity / Basal Activity: ± SD; for Basal Activity / Dynamic Range: BreR bile acid sensor; for Basal Activity: basal reporter luminescence; for Dynamic Range: reporter induction
[2] = system: VFA0359 from Vibrio fischeri; experiment: Luciferase assay of bile acid sensor using VFA0359 in B. thetaiotaomicron; format: cell-based; conditions: same operator sequence as BreR

SMILES: C[C@H](CCC(=O)NCC(=O)O)[C@H]1CC[C@H]2[C@@H]3[C@H](O)C[C@@H]4C[C@H](O)CC[C@]4(C)[C@H]3C[C@H](O)[C@]12C [GCA, glycocholic acid]
- sensor sensitive to substance (FIG. 4 legend) [1]: not
- induction of reporter luminescence by bile acid [1]: does not sense

SMILES: C[C@H](CCC(=O)O)[C@H]1CC[C@H]2[C@@H]3CC[C@@H]4C[C@H](O)CC[C@]4(C)[C@H]3C[C@H](O)[C@]12C [DCA, deoxycholic acid]
- induced gene expression of the reporter construct [2]: ~600 fold
- Sensitivity [1]: 25.8 ± 7.6 Lum/μM*10^−5
- Basal Activity [1]: 1.7 ± 0.8 Lum × 10^4
- Dynamic Range [1]: 71.5 ± 3.4 fold-change

SMILES: C[C@H](CCC(=O)O)[C@H]1CC[C@H]2[C@@H]3[C@H](O)C[C@@H]4C[C@H](O)CC[C@]4(C)[C@H]3C[C@H](O)[C@]12C [CA, cholic acid]
- relative sensitivity of the sensor among deconjugated bile acids [1]: least sensitive
- Sensitivity [1]: 0.8 ± 0.2 Lum/μM*10^−5
- Basal Activity [1]: 2.1 ± 0.7 Lum × 10^4
- Dynamic Range [1]: 18.5 ± 3.8 fold-change
- sensor sensitive to substance (FIG. 4 legend) [1]: sensitive
- induction of reporter luminescence by bile acid [1]: induced luminescence in a dose dependent manner

SMILES: CC(C)CCC[C@@H](C)[C@H]1CC[C@H]2[C@@H]3CC=C4C[C@@H](O)CC[C@]4(C)[C@H]3CC[C@]12C [cholesterol]
- sensor sensitive to substance (FIG. 4 legend) [1]: not

SMILES: C[C@H](CCC(=O)NCCS(=O)(=O)O)[C@H]1CC[C@H]2[C@@H]3[C@H](O)C[C@@H]4C[C@H](O)CC[C@]4(C)[C@H]3C[C@H](O)[C@]12C [TCA, taurocholic acid]
- sensor sensitive to substance (FIG. 4 legend) [1]: not
- induction of reporter luminescence by bile acid [1]: does not sense

SMILES: C[C@H](CCC(=O)O)[C@H]1CC[C@H]2[C@@H]3[C@H](O)C[C@@H]4C[C@H](O)CC[C@]4(C)[C@H]3CC[C@]12C [CDCA, chenodeoxycholic acid]
- relative sensitivity of the sensor among deconjugated bile acids [1]: moderately sensitive
- Sensitivity [1]: 2.3 ± 1.1 Lum/μM*10^−5
- Basal Activity [1]: 1.9 ± 0.4 Lum × 10^4
- Dynamic Range [1]: 25.8 ± 11.1 fold-change
- sensor sensitive to substance (FIG. 4 legend) [1]: sensitive
- induction of reporter luminescence by bile acid [1]: induced luminescence in a dose dependent manner

SMILES: C[C@H](CCC(=O)O)[C@H]1CC[C@H]2[C@@H]3CC[C@@H]4C[C@H](O)CC[C@]4(C)[C@H]3CC[C@]12C [LCA, lithocholic acid]
- Sensitivity [1]: 1.4 ± 0.8 Lum/μM*10^−5
- Basal Activity [1]: 2.2 ± 0.9 Lum × 10^4
- Dynamic Range [1]: 17.5 ± 4.9 fold-change
